The results in this text go back to the Deep4Chem optical property database.

Structures are written as SMILES.

The nature of this data set: photoluminescence quantum yield (fraction); solvent given as SMILES.

As to `CCCCCCCCN1c2ccc(C#Cc3ccc(OC)cc3)cc2Sc2cc(C=O)ccc21`, the photoluminescence quantum yield (in C1CCOC1) came to 0.54; the photoluminescence quantum yield (in CC#N) came to 0.34; the photoluminescence quantum yield (in CCCCCC) was 0.59; the photoluminescence quantum yield (in CO) is 0.07; the photoluminescence quantum yield (in CS(C)=O) is 0.91; the photoluminescence quantum yield (in Cc1ccccc1) was 0.49. Besides, the photoluminescence quantum yield (in ClC(Cl)Cl) came out at 0.58.

As for `CC(C)C1=c2c(c3[nH]cc(C(C)C)c3c3ccccc23)=[N+]2C1=Cc1c(C(C)C)c3c4ccccc4c4c(C(C)C)c[nH]c4c3n1[B-]2(F)F`, where the note is “in ClC(Cl)Cl”, the photoluminescence quantum yield was determined as 0.63.

For the setting “in ClCCl”, `c1ccc(-c2cc3cc4cccc5c(-c6ccccc6)cc6cc7cccc2c7c3c6c45)cc1` registered a photoluminescence quantum yield of 0.33.

`Cc1ccc(C2=C3C=CC([Te]c4ccccc4)=[N+]3[B-](F)(F)n3c([Te]c4ccccc4)ccc32)cc1` returned a photoluminescence quantum yield (in C1CCOC1) of 0.01.

Consider `Cc1cccc2nc3c(=O)[nH]c(=O)[nH]c3nc12`, for which the photoluminescence quantum yield is, setting by setting: (in C1COCCO1) 0.033; (in CC#N) 0.018; (in CCO) 0.03; (in CO) 0.044; (in ClCCCl) 0.028; (in O) 0.053.

`CC[N+]1(CC)CN2C(=N1)C(C(=O)O)=Cc1c(OC)ccc(OC)c12`: the photoluminescence quantum yield (in O) was 0.018.

Where the note is “in ClCCl”, `CC(C)(C)NC(=O)c1cccc2ccc3c4ccc(F)cc4c4cc(F)ccc4c3c12` gave a photoluminescence quantum yield of 0.05.

With `C[n+]1ccc(/C=C/c2cc[n+](C)cc2)cc1`, the photoluminescence quantum yield (in CC#N) is 0.015.

`Cc1ccc(C)c(C)c1` yielded a photoluminescence quantum yield (in C1CCCCC1) of 0.41.

`CC1(C)C(/C=C/C2=C(Cl)C(=C/C=C3/N(Cc4ccccc4)c4ccccc4C3(C)C)/CCC2)=[N+](Cc2ccccc2)c2ccccc21` showed a photoluminescence quantum yield (in CCO) of 0.117.

Regarding `O=C1c2cc(-c3ccccc3)ccc2-c2ccc(-c3ccccc3)cc21`, for the setting “in C1CCOC1”, the photoluminescence quantum yield was found to be 0.01.

As for `CC(=O)c1c2c(cc3cc(N(C)C)ccc13)CCC2`, the photoluminescence quantum yield was found to be 0.08 (in C1CCCCC1); 0.34 (in C1CCOC1); 0.38 (in C1COCCO1); 0.18 (in CC#N); 0.03 (in CCO); 0.37 (in CS(C)=O). Also, the photoluminescence quantum yield is, setting by setting: (in Cc1ccccc1) 0.25; (in ClC(Cl)Cl) 0.41; (in ClCCl) 0.82.

In turn, `c1ccc2c(-c3c4ccccc4c(-c4ccc(-n5c6ccccc6c6ccccc65)cc4)c4ccccc34)cccc2c1` registered a photoluminescence quantum yield (in ClCCl) of 0.78.

In the case of `CN(C)c1ccc(C#Cc2ccc(C#Cc3ccc(C#Cc4ccccc4C#N)cc3C#N)cc2C#N)cc1`, the photoluminescence quantum yield by setting is: (in C1CCOC1) 0.084; (in CC#N) 0.002; (in CN(C)C=O) 0.002; (in ClC(Cl)Cl) 0.999; (in c1ccccc1) 0.999.

Consider `CON(OC)c1cc2c3cc(-c4c(C)cc(C)cc4C)cc4c5cc(-c6c(C)cc(C)cc6C)cc6c7cc(B(c8c(C)cc(C)cc8C)c8c(C)cc(C)cc8C)cc8c9cc(-c%10c(C)cc(C)cc%10C)cc%10c%11cc(-c%12c(C)cc(C)cc%12C)cc%12c(c1)c2c1c(c43)c(c65)c(c78)c(c9%10)c1c%11%12`, for which the photoluminescence quantum yield by setting is: (in C1CCOC1) 0.46; (in CC(C)=O) 0.05; (in CCCCCC) 0.22; (in Cc1ccccc1) 0.42; (in ClC(Cl)Cl) 0.46; (in ClCCl) 0.56.

In turn, `F[B-]1(F)Oc2ccccc2-c2n(-c3ccc(C(F)(F)F)cc3)c(-c3ccccc3)c(-c3ccccc3)[n+]21` had a photoluminescence quantum yield (in C1CCOC1) of 0.49.

Regarding `CC1(C)c2ccccc2N(c2ccc3c(c2)c2ccccc2c2nc4ccccc4nc32)c2ccccc21`, the photoluminescence quantum yield (in c1cc(-c2cccc(-n3c4ccccc4c4ccccc43)c2)cc(-n2c3ccccc3c3ccccc32)c1) amounted to 0.42.

In turn, `c1csc(-n2c3ccccc3c3ccccc32)c1` registered a photoluminescence quantum yield (in ClCCl) of 0.014.

For `c1cc2ccc3ccc4ccc5ccc1c1c2c3c4c51`, the photoluminescence quantum yield (in C1CCCCC1) was determined as 0.024.

On to `CCn1c(-c2ccc(-c3ccc4ccc5cccc6ccc3c4c56)cc2)c(-c2ccc3ccccc3c2)c(-c2ccc3ccccc3c2)c1-c1ccc(-c2ccc3ccc4cccc5ccc2c3c45)cc1`, for which the photoluminescence quantum yield (in CCOC(C)=O) came to 0.99.

Compound `Cc1ccc(C2=C3C=C4C(=[N+]3[B-](F)(F)n3c2cc2c3-c3ccccc3C23c2ccccc2-c2ccccc23)c2ccccc2C42c3ccccc3-c3ccccc32)cc1` came in with a photoluminescence quantum yield (in C1CCOC1) of 0.67.

The compound `CCC/N=C/c1cc2ccc(N(C)C)cc2cc1OC` had a photoluminescence quantum yield (in CS(C)=O) of 0.61.

As to `CCCCn1c(-c2ccc(-c3ccc(-c4ccc(-c5n(CCCC)c6ccccc6[n+]5CCCC)cc4)cc3)cc2)[n+](CCCC)c2ccccc21`, the photoluminescence quantum yield (in O) came to 0.77.

Take `CC(C)[Si](C#Cc1ccc(C#C[Si](C(C)C)(C(C)C)C(C)C)c2nc3cc4c(cc3nc12)[C@H]1c2ccccc2[C@@H]4c2ccccc21)(C(C)C)C(C)C`: the photoluminescence quantum yield by setting is: (in CCCCCC) 0.02; (in ClCCl) 0.02.

For the compound `O=P1(c2ccccc2)C(c2cc(C(F)(F)F)cc(C(F)(F)F)c2)=Cc2c3ccc4cccc5ccc(c6cc(-c7ccccc7)n1c26)c3c45` (stereo unspecified), the photoluminescence quantum yield is 0.54 (in C1CCCCC1); 0.61 (in C1CCOC1); 0.62 (in C1COCCO1); 0.63 (in CC#N); 0.64 (in CC(C)=O); 0.65 (in CO). For the same compound, the photoluminescence quantum yield by setting is: (in Cc1ccccc1) 0.66; (in ClC(Cl)Cl) 0.6; (in ClCCl) 0.61.

Where the note is “in CO”, `COc1ccc(-c2nc(-c3ccc(C(=O)O)cc3)[nH]c2-c2ccc(OC)cc2)cc1` yielded a photoluminescence quantum yield of 0.42.

`CCCCC(CC)CN1C(=O)c2cccc3c(C#Cc4ccc(N(c5ccc(C#Cc6ccc7c8c(cccc68)C(=O)N(CC(CC)CCCC)C7=O)cc5)c5ccc(C#Cc6ccc7c8c(cccc68)C(=O)N(CC(CC)CCCC)C7=O)cc5)cc4)ccc(c23)C1=O` (stereo unspecified): the photoluminescence quantum yield reads like this: (in C1CCCCC1) 0.064; (in C1CCOC1) 0.027; (in CC#N) 0.111; (in Cc1ccccc1) 0.053; (in ClC(Cl)Cl) 0.041.

For `CC1=CC(C)=[N+]2C1=Cc1c(C)cc(C)n1[B-]2(F)F`, the photoluminescence quantum yield runs as follows: (in CCCCCC) 0.96; (in CO) 0.99; (in ClCCl) 0.92.

Consider `Cn1nc(-c2ccccc2)c2nc3cc(F)ccc3nc21`, for which the photoluminescence quantum yield turned out to be 0.61 (in C1CCCCC1), 0.38 (in C1CCOC1) and 0.11 (in CC#N).

The compound `N#Cc1ncc(-c2c3ccccc3c(-c3cnc(C#N)nc3)c3ccccc23)cn1` had a photoluminescence quantum yield (in CCO) of 0.05 and a photoluminescence quantum yield (in ClCCl) of 0.57.

Turning to `N#Cc1nn(-c2ccccc2)nc1N1CCCC1`, the photoluminescence quantum yield (in CC#N) was found to be 0.886.

Take `CCCCCCc1ccc2c3c(ccc2c1)O[B-](F)(F)[N+](c1cc([N+]2=Cc4c(ccc5cc(CCCCCC)ccc45)O[B-]2(F)F)cc([N+]2=Cc4c(ccc5cc(CCCCCC)ccc45)O[B-]2(F)F)c1)=C3`: the photoluminescence quantum yield by setting is: (in C1CCOC1) 0.26; (in CC#N) 0.18; (in Cc1ccccc1) 0.48; (in ClCCl) 0.44.
